Measurements reported in patent US9326513B2, “Fungicidal compositions” (Syngenta Participations AG, priority 2011, dated 2016).

Legend:
Type in all cases: in vivo
Conditions in all cases: foliar, compared to untreated control leaf disks, read-out: disease control
[1] = tested on: Puccinia recondita f. sp. tritici; assay: Puccinia recondita f. sp. tritici / wheat / leaf disc curative (brown rust)
Protocol: Puccinia recondita f. sp. tritici/Wheat/Leaf Disc Curative (Brown Rust) Wheat leaf segments cv. Kanzler are placed on agar in multiwell plates (24-well format). The leaf segments are inoculated with a spore suspension of the fungus. Plates were stored in darkness at 19° C. and 75% rh. The formulated test compound diluted in water was applied 1 day after inoculation.

[2] = tested on: Blumeria graminis f. sp. tritici (Erysiphe graminis f. sp. tritici); assay: Blumeria graminis f. sp. tritici / wheat / leaf disc preventative (powdery mildew on wheat)
Protocol: Blumeria graminis f. sp. tritici (Erysiphe graminis f. sp. tritici)/Wheat/Leaf Disc Preventative (Powdery Mildew on Wheat)
Wheat leaf segments cv. Kanzler were placed on agar in a multiwell plate (24-well format) and sprayed with the formulated test compound diluted in water. The leaf disks were inoculated by shaking powdery mildew infected plants above the test plates 1 day after application. The inoculated leaf disks were incubated at 20° C. and 60% rh under a light regime of 24 h darkness followed by 12 h light/12 h darkness in a climate chamber and the activity of a compound was assessed as percent disease control compared to untreated when an appropriate level of disease damage appears on untreated check leaf segments (6-8 days after application).
The following compounds gave at 200 ppm give at least 50% disease control in this test when compared to untreated control leaf disks under the same conditions, which show extensive disease development: […]

[3] = tested on: Puccinia recondita f. sp. tritici; assay: Puccinia recondita f. sp. tritici / wheat / leaf disc preventative (brown rust)
Text: Puccinia recondita f. sp. tritici/Wheat/Leaf Disc Preventative (Brown Rust) Wheat leaf segments cv. Kanzler were placed on agar in multiwell plates (24-well format) and sprayed with the formulated test compound diluted in water. The leaf disks were inoculated with a spore suspension of the fungus 1 day after application.

Measured: pest or weed control at 200 ppm

Cc1nc(OC(C)c2cc(F)cc(F)c2)c(Br)cc1/N=C/N(C)C(C)C (stereo not drawn) [Q.188]
≥ 50%: all assays above

CCN(C)/C=N/c1cc(Br)c(OCCCC2CC2)nc1C [Q.356]
≥ 50%: all assays above

Cc1nc(OCCCC(C)C)c(Br)cc1/N=C/N(C)C [Q.006]
≥ 50%: all assays above

CCN(C)/C=N/c1cc(Br)c(OCc2ccccc2C)nc1C1CC1 [Q.401]
≥ 50%: all assays above

CCN(C)/C=N/c1cc(Br)c(OCc2ccc3cccnc3c2)nc1C [Q.351]
≥ 50%: all assays above

C/C=C/c1cc(/N=C/N(C)CC)c(C)nc1OCc1ccccc1C [Q.385]
≥ 50%: all assays above

CCN(C)/C=N/c1cc(I)c(O[C@H]2CC[C@H](C(C)C)CC2)nc1C [Q.179]
≥ 50%: all assays above

CCN(C)/C=N/c1cc(Br)c(OC2CCCc3ccc(F)cc32)nc1C (stereo not drawn) [Q.048]
≥ 50%: all assays above

CCN(C)/C=N/c1cc(Br)c(OC2C=CC(=O)CC2)nc1C (stereo not drawn) [Q.281]
≥ 50%: all assays above

CCN(C)/C=N/c1cc(Br)c(OCc2ccccc2-c2ccccc2)nc1C [Q.294]
≥ 50%: all assays above

CCN(C)/C=N/c1cc(Br)c(OCC2CC(C)=C(C)C2)nc1C [Q.134]
≥ 50%: all assays above

CCN(C)/C=N/c1cc(Br)c(OC(C)CCc2ccccc2)nc1C (stereo not drawn) [Q.147]
≥ 50%: all assays above

CCCc1ccccc1COc1nc(C)c(/N=C/N(C)CC)cc1Br [Q.345]
≥ 50%: all assays above

CCN(C)/C=N/c1cc(Br)c(O[C@@H]2C[C@@H]3ON=C(C)[C@@H]3C2)nc1C [Q.068]
≥ 50%: all assays above

CCN(C)/C=N/c1cc(Br)c(OCc2snc(-c3ccccc3)c2Cl)nc1C [Q.109]
≥ 50%: all assays above

CCN(C)/C=N/c1cc(Br)c(OCC[Si](CC)(CC)CC)nc1C [Q.274]
≥ 50%: all assays above

CSc1ccccc1COc1ccc(/N=C/N(C)C(C)C)c(C)n1 [Q.339]
≥ 50%: all assays above

CCN(C)/C=N/c1cc(Br)c(OCc2snc(C(C)C)c2C#N)nc1C [Q.156]
≥ 50%: all assays above

CCN(C)/C=N/c1cc(Br)c(OC(C)c2ccc3c(c2)CCC3)nc1C (stereo not drawn) [Q.239]
≥ 50%: all assays above

CCN(C)/C=N/c1cc(Br)c(OCc2ccc(C)nc2)nc1C [Q.130]
≥ 50%: all assays above

CCN(C)/C=N/c1cc(Br)c(OC(C)c2ccccc2C#N)nc1C (stereo not drawn) [Q.305]
≥ 50%: all assays above

CCN(C)/C=N/c1ccc(OC(C)Cc2ccccc2)nc1C (stereo not drawn) [Q.368]
≥ 50%: all assays above

CCCCCCCCCCOc1nc(C)c(/N=C/N(C)CC)cc1C [Q.058]
≥ 50%: all assays above

CCN(C)/C=N/c1cc(Br)c(OC(C)CC[Si](C)(C)C)nc1C (stereo not drawn) [Q.273]
≥ 50%: all assays above

Cc1cc(C)cc(C(C)Oc2ccc(/N=C/N(C)C(C)C)c(C)n2)c1 (stereo not drawn) [Q.360]
≥ 50%: all assays above

C/C=C/C(C)Oc1nc(C)c(/N=C/N(C)CC)cc1Br (stereo not drawn) [Q.331]
≥ 50%: all assays above

CCC(Oc1nc(C)c(/N=C/N(C)CC)cc1Br)c1cc(F)cc(F)c1 (stereo not drawn) [Q.327]
≥ 50%: all assays above

CCN(C)/C=N/c1ccc(OC2CCCCC2C)nc1C (stereo not drawn) [Q.341]
≥ 50%: all assays above

CCN(C)/C=N/c1cc(Br)c(OC2CCc3ccc(Br)cc3C2)nc1C (stereo not drawn) [Q.127]
≥ 50%: all assays above

CCN(C)/C=N/c1cc(Br)c(OC2Cc3cc(Br)c(Br)cc3C2)nc1C [Q.030]
≥ 50%: all assays above

CCN(C)/C=N/c1cc(Br)c(OC2Cc3cc(C#N)c(OC)cc3C2)nc1C (stereo not drawn) [Q.369]
≥ 50%: all assays above

Cc1cc(C)cc(COc2ccc(/N=C/N(C)C(C)C)c(C)n2)c1 [Q.297]
≥ 50%: all assays above

CCN(C)/C=N/c1cc(C)c(O[C@H]2CC[C@H](C(C)C)CC2)nc1C [Q.185]
≥ 50%: all assays above

CCN(C)/C=N/c1cc(Br)c(OC(C)c2cc(F)c(F)c(F)c2)nc1C (stereo not drawn) [Q.318]
≥ 50%: all assays above

C=CCN1CCC(Oc2nc(C)c(/N=C/N(C)CC)cc2Br)CC1 [Q.165]
≥ 50%: all assays above

CCC(Oc1ccc(/N=C/N(C)CC)c(C)n1)c1ccccc1 (stereo not drawn) [Q.347]
≥ 50%: all assays above

CCN(C)/C=N/c1cc(Br)c(OCc2cccc(N(C)C)c2)nc1C [Q.177]
≥ 50%: all assays above

CCOC(=O)COc1nc(C)c(/N=C/N(C)CC)cc1C [Q.065]
≥ 50%: all assays above

CCN(C)/C=N/c1cc(Br)c(OCc2cc(-c3ccc(F)cc3)ns2)nc1C [Q.123]
≥ 50%: all assays above

CCN(C)/C=N/c1cc(Br)c(OCc2ccccc2OC)nc1C [Q.330]
≥ 50%: all assays above
